1 compound from patent publication US6623741B1, “Methods and compositions for inhibition of membrane fusion-associated events including RSV transmission” (Trimeris, Inc., priority 2000, dated 2003) can be followed below.

Series [1] can be described thus: Circular dichroism spectroscopy (helicity, thermal stability). In kind it is physicochemical. To be noted: 10 and 50 μM. The protocol:
Circular Dichroism Spectroscopy:
Circular Dichroism (CD) spectra were obtained using an AVIV Associates 62DS spectrometer equipped with a thermoelectric temperature controller. Spectra were obtained in 0.1, 0.5 and 1.0 cm quartz cells at 1° C. with 0.5 nm steps from 200 to 260 nm, 1.5 nm bandwidth and an averaging time of 4 sec/step. After the cell/buffer blank was subtracted, spectra were smoothed using a third-order least-squares polynomial fit with a conservative (5-10 point) window size to give random residuals. Mixing experiments were performed by comparing the spectrum of the two peptides mixed together in a 0.1 cm path length cell at the desired concentrations (referred to herein as the “experimental” spectrum) to the sum of the individual spectra of the peptides, each solution in a 0.1 cm path length cell (referred to herein as the “model spectrum” for no peptide interaction or “model for no interaction”).
Raw ellipticity values were converted to mean residue ellipticity using standard methods (Cantor & Schimmel, 1980, Biophysical Chemistry Part II: Techniques for the Study of Biological Structure and Function, W.H. Freeman and Co., New York). Conversions for the mixing experiment spectra were performed using a peptide length corresponding to the average of the two peptides. Thermal stability measurements were performed in 2° C. steps, with 1 minute equilibration times. Spectra were smoothed, converted to mean residue ellipticity, and the corresponding value at 222 nm noted from each spectrum. Percent helicity values were calculated using single value decomposition with a basis set of 33 protein spectra (Johnson & Curtis, 1990, Proteins: Structure, Function and Genetics 7:205-214).
In general terms: CD spectra are sensitive to the conformation of chiral molecules.

Series [2] relates to HR1 domain of RSV-F1. The series is classed as binding, respiratory syncytial virus. To be noted: 5 μg/ml proteinase-K, one hour at 37° C.
Method: Proteinase-K Protection Experiments:
(§1) Mixtures were treated with 5 μg/ml proteinase-K (Sigma, St. Louis, Mo.) or an equivalent volume of buffer, vortexed and then incubated for one hour at 37° C. Phenyl methyl sulfonyl fluoride (PMSF, Boehringer Mannheim, Indianapolis, Ind.) was added to achieve a 2 mM final concentration to stop proteolytic digestion. 20 μl of each sample was removed and added to 10 μl of a sample buffer (New England Biolabs, Boston, Mass.) containing 6 w/v% Sodium Dodecyl Sulfate (DDS), DTT, 187.5 mM TRIS, 30% glycerol and bromophenol blue. The mixtures were heated for five minutes at 90° C. 15 μl of the samples were run on a 10-20% Tricine polyacrylamide gel (Novex, San Diego, Calif.), stained with Coomassie brilliant blue and destained with a 10% methanol-10% acetic acid mixture (Fisher, Norcross, Ga.).
For series [3], the target named is T1, HR1 domain of RSV-F1 (Human respiratory syncytial virus A, UniProt P03420).
T1 construct: made in house
T1 sequence (P03420 142-302): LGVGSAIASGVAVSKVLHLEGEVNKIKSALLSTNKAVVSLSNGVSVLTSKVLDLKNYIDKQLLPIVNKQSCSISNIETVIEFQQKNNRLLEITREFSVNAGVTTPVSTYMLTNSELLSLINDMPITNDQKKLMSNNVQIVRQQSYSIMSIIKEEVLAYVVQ
In kind it is binding.
Method: Proteinase-K Protection Experiments:
as §1

The target of series [4] is T2, MBP fusion protein containing the ectodomain of the HIV-1 fusion protein gp41 (M41Δ178) (Human immunodeficiency virus type 1 group M subtype B, UniProt P03377).
T2 construct: made by cloning the DNA fragment corresponding to gp41 amino acids 540-642 into the Xmn I site of pMal-p2; made in house
T2 sequence (P03377 540-642, stated change not applied): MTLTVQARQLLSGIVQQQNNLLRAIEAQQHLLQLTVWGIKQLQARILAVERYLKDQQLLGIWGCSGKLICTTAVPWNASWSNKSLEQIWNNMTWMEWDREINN
The note with it: control for non-specific binding.
Method: as §1

For `CC[C@H](C)[C@H](NC(=O)[C@H](Cc1ccccc1)NC(=O)[C@H](C)NC(=O)[C@H](CC(C)C)NC(=O)[C@H](CO)NC(=O)[C@H](CCC(N)=O)NC(=O)[C@H](CC(N)=O)NC(=O)[C@@H](NC(=O)[C@H](CCCCN)NC(=O)[C@H](CCC(=O)O)NC(=O)[C@H](CC(N)=O)NC(=O)[C@@H](NC(=O)[C@H](CCC(N)=O)NC(=O)[C@H](CO)NC(=O)[C@@H](NC(=O)[C@H](CO)NC(=O)[C@H](C)NC(=O)[C@H](CC(=O)O)NC(=O)[C@H](Cc1ccccc1)NC(=O)[C@H](CCC(=O)O)NC(=O)[C@H](CC(=O)O)NC(=O)[C@H](CO)NC(=O)[C@@H]1CCCN1C(=O)[C@H](Cc1ccccc1)NC(=O)[C@@H](NC(C)=O)C(C)C)[C@@H](C)CC)C(C)C)[C@@H](C)CC)C(=O)N[C@@H](CCCNC(=N)N)C(=O)N[C@@H](CCCCN)C(=O)N[C@@H](CO)C(=O)N[C@@H](CC(=O)O)C(=O)N[C@@H](CCC(=O)O)C(=O)N[C@@H](CC(C)C)C(=O)N[C@@H](CC(C)C)C(=O)N[C@@H](Cc1c[nH]cn1)C(=O)N[C@@H](CC(N)=O)C(=O)N[C@H](C(N)=O)C(C)C` [Peptide T112], the “thermal stability (CD melting curves, in words)” value in series [1] was “little thermal stability”. Besides, the helicity entry in series [1] (PBS solution) is recorded as “less than 10%”. The “proteinase-K digestion of the peptide alone” value in series [2] is “digest the peptide entiretly”. The “binding to the HR1 domain of RSV-F1 and protection from proteolytic digestion” value in series [3] is “binds to the HR1 domain of RSV-F1 and thereby protects the domain from proteolytic digestion”. Besides, the “binding to MBP fusion protein containing the HIV-1 gp41 ectodomain” value in series [4] was “does not bind”.
